The values below come from patent US10302653B2, “Distinguishing antagonistic and agonistic anti B7-H1 antibodies” (Mayo Foundation for Medical Education and Research, priority 2014, dated 2019).

One assay has as its target T1, DNA-PKcs (Mus musculus, UniProt P97313).
T1 construct: endogenous in cells
Briefly: p38 MAPK activation in pre-activated WT and B7-H1 KO T cells cultured with DNA-PKcs inhibitor. The format is cell-based. The method, then: NU7026 (2-(morpholin-4-yl)-benzo[h]chomen-4-one) is a DNA-PKcs inhibitor. […] NU7026 is added into cultures with pre-activated WT and B7-H1 KO T cells and after 24-72 hours of incubation, the activation of p38 is measured in the cells. As a consequence of p38 MAPK activation regulated by NU7026, the level of Bcl-xL also is measured in the T cells after treatment with NU7026. If p38 activation is regulated by DNA-PKcs, changes in p38 activation in the presence of NU7026 would be observed in WT T cells. If B7-H1 requires DNA-PKcs to regulate activation of p38 MAPK, NU7026 would induce significant changes in p38 MAPK activation in WT T cells, but not in B7-H1 KO T cells. […] Bcl-xL levels would change accordingly with the changes in p38 MAPK activation. In addition to inhibition of DNA-PKcs activity by NU7026, the impact of total DNA-PKcs protein levels on p38 MAPK activation is evaluated. siRNA-mediated knockdown of DNA-PKcs is known to result in reduced ERK activation in mouse macrophages (Yotsumoto et al., supra). Using a similar approach, experiments are conducted to test whether down-regulation of DNA-PKcs in T cells affects p38 MAPK activation in WT and B7-H1 KO T cells. Preliminary data predicts a potential link between DNA-PK and activation of p38 MAPK. […]

A further assay has as its target DNA-PK (Homo sapiens, UniProt P78527). The following applies: 10 μM; cited from earlier work.

T1 sequence (P97313 whole entry): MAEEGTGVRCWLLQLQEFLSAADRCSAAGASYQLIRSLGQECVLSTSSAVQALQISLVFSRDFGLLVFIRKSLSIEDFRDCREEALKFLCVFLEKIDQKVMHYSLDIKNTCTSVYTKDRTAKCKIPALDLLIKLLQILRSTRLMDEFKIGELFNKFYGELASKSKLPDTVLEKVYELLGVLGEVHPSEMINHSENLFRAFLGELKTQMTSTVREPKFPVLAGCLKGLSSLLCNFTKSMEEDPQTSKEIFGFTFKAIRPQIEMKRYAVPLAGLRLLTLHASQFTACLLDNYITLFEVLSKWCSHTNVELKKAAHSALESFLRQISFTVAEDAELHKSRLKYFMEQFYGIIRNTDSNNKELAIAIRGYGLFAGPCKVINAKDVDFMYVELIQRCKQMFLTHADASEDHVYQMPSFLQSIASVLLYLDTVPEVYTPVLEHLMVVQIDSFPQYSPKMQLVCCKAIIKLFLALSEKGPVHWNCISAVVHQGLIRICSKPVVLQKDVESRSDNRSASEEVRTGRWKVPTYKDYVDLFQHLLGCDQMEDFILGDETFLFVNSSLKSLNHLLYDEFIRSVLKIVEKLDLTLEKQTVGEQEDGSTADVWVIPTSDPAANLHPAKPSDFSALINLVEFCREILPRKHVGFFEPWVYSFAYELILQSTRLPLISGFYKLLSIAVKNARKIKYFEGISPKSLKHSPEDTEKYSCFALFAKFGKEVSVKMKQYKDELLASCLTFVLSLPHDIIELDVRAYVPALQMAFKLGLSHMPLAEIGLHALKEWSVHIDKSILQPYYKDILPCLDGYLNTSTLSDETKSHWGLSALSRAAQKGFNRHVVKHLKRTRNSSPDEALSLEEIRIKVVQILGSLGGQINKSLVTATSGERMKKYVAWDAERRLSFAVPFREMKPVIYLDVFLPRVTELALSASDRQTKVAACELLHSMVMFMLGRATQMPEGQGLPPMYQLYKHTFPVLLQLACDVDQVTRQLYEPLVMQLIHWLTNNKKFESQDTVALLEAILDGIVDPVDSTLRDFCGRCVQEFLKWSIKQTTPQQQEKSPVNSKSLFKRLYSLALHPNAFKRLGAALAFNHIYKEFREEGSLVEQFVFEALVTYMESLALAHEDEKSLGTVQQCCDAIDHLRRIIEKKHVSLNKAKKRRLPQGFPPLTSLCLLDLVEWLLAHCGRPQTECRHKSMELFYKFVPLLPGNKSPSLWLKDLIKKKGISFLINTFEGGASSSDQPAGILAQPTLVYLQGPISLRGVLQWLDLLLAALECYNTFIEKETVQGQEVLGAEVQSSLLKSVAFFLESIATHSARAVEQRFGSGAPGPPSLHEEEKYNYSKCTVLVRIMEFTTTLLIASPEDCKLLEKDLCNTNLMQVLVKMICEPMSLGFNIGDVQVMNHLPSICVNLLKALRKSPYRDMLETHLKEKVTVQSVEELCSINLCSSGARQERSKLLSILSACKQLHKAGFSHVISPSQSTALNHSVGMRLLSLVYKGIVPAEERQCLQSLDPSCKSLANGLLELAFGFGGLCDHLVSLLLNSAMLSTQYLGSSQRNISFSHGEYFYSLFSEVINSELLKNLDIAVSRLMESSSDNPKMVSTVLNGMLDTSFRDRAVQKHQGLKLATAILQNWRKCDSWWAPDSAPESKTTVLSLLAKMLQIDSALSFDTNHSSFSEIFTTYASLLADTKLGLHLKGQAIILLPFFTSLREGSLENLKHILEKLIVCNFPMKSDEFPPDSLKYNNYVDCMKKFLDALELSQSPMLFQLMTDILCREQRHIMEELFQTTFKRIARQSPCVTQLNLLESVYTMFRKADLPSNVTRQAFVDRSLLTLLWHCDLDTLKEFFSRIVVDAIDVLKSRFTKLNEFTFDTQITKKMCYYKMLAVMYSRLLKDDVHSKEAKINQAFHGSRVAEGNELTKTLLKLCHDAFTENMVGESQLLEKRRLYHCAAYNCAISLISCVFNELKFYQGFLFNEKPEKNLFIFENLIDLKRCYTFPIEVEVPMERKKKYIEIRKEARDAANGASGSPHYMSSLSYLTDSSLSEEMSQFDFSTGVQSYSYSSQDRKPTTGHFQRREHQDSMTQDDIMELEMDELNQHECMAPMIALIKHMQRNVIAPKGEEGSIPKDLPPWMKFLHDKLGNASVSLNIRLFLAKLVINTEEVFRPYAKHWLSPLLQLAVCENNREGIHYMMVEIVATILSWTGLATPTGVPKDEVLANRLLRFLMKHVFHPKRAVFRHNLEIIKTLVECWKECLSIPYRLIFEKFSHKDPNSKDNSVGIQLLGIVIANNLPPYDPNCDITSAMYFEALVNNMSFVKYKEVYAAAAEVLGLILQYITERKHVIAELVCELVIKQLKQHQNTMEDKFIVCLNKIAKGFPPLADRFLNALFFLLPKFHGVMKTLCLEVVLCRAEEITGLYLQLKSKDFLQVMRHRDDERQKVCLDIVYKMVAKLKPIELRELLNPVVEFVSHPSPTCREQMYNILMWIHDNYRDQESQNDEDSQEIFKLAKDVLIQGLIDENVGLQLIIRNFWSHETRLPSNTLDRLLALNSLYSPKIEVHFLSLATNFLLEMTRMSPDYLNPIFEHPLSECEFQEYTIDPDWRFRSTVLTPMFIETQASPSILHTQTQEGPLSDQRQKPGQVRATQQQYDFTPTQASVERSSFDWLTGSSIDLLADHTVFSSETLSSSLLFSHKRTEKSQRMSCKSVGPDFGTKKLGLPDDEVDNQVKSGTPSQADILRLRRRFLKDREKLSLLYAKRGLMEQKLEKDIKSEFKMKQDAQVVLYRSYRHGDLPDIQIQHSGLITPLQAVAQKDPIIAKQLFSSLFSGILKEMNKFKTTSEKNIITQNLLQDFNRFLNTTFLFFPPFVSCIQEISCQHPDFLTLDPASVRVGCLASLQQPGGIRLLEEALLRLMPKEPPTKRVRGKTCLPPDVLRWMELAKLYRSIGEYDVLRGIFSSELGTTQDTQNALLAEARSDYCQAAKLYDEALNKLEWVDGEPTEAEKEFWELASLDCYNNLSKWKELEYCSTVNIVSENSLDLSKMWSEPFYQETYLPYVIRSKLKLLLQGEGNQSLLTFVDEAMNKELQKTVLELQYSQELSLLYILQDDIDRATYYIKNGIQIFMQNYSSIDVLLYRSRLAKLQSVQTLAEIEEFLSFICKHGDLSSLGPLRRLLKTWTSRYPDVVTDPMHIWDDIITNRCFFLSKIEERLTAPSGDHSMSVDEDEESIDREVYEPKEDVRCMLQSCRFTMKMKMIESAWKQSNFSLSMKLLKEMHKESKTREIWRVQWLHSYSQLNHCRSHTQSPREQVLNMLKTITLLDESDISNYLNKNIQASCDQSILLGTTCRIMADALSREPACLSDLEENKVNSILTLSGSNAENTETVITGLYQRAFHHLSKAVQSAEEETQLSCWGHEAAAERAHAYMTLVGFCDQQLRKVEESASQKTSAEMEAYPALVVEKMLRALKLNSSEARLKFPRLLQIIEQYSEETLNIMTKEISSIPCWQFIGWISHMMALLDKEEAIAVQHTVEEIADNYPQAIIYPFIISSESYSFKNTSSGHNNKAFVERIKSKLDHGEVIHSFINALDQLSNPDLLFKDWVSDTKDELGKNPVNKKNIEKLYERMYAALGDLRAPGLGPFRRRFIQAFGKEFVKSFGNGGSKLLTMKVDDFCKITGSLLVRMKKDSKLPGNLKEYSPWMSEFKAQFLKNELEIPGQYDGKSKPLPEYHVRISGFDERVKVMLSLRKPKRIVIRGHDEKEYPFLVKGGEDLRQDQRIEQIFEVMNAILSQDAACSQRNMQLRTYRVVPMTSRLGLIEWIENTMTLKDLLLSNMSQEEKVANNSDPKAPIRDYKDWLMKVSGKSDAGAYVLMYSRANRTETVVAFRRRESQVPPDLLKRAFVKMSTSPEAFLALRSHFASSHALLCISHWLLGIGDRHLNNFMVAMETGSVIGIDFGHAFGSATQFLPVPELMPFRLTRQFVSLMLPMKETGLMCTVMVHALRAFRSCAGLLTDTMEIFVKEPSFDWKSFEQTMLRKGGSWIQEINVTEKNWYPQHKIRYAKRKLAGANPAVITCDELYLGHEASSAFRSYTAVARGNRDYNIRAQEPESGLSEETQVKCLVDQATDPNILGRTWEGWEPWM

Consider `O=c1cc(N2CCOCC2)oc2c1ccc1ccccc12` [NU7026, 2-(morpholin-4-yl)-benzo[h]chomen-4-one], for which the “p38 MAPK activation in WT T cells” value at DNA-PKcs is recorded as “increased”. In addition, on DNA-PK, the “inhibition of activity of purified DNA-PK” value is recorded as “completely inhibit”.
